One experiment has as its system breast cancer cell line. Put plainly: Anti-oxidant activity. The settings on record: against the breast cancer cell line (so in the source).
The subject of the next experiment is colon cancer cell line. In words: Anti-cancer activity against colon cancer cell line. Type of experiment: cell-based. As to conditions: read-out: IC50 (anticancer activity).
For the next experiment, the system named is E-coli bacteria. Put plainly: Anti-microbial activity (antibacterial, inhibition zone and MIC). Type of experiment: cell-based.

SMILES strings stand for the structures. Converted amounts (≈) assume the structure as drawn.

`O=C1O[C@H]([C@@H](O)CO)C(O)=C1O` [1-ascorbic acid, reference compound]: the “IC50 (Antioxidant activity)” value with breast cancer cell line stood at 55.2 µg/mL (≈ 313 µM). On to `CC[C@]1(O)C[C@@H]2CN(CCc3c([nH]c4ccccc34)[C@@](C(=O)OC)(c3cc4c(cc3OC)N(C)[C@H]3[C@@](O)(C(=O)OC)[C@H](OC(C)=O)[C@]5(CC)C=CCN6CC[C@]43[C@@H]65)C2)C1` [vinblastine, reference compound], for which the IC50 in the experiment with colon cancer cell line came out at 4.7 µg/mL (≈ 5.8 µM). Consider `CC1COc2c(N3CCN(C)CC3)c(F)cc3c(=O)c(C(=O)O)cn1c23` (stereo not shown) [Ofloxacin, reference compound], for which the inhibition zone in the experiment with E-coli bacteria is on record as 30 mm. It took 2.25 µg/mL (≈ 6.23 µM) to inhibit growth against E-coli bacteria (Escherichia coli) (MIC).

A word on the IC50: it is the concentration that gives 50% inhibition. Broadly, the MIC is the lowest concentration found to suppress growth. Lower therefore signals a more susceptible organism.

Source of the values: US11873313B1, “Development of novel tetra nuclear distorted square anti-prism Dy (III) imine complex for pharmaceutical and industrial applications” (KING FAISAL UNIVERSITY, priority 2023, dated 2024).
